In ChEMBL document CHEMBL5303766, “Data for DCP probe FHT-2344” (2022):

How the values were obtained:
[1] = biological target: Muscarinic acetylcholine receptor M5 (Homo sapiens) (UniProt P08912); details: Compound concentration 10.0 uM
[2] = biological target: SRSF protein kinase 1 (Homo sapiens) (UniProt Q96SB4); assay: SRPK1 SGC Tm panel (DSF); details: for ΔTm: Compound concentration 10.0 uM
[3] = biological target: T1, Serine/threonine-protein kinase VRK1 (Homo sapiens) (UniProt Q99986); assay: VRK1 SGC Tm panel (DSF); details: for ΔTm: Compound concentration 10.0 uM
T1 sequence (whole entry): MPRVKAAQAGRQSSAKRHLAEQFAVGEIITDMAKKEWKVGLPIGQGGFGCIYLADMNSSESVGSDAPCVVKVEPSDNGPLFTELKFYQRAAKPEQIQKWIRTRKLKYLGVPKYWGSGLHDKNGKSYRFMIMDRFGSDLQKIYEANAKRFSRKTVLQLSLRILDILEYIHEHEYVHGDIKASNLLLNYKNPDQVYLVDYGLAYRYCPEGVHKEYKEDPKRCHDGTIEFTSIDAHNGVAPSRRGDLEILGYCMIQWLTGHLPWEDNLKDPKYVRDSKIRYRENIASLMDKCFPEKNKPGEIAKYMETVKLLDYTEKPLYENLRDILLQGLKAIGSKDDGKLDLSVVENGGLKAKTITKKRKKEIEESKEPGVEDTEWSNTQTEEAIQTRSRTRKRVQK

[4] = biological target: T2, Serine/threonine-protein kinase ULK3 (Homo sapiens) (UniProt Q6PHR2); assay: ULK3 SGC Tm panel (DSF); details: for ΔTm: Compound concentration 10.0 uM
T2 sequence (whole entry): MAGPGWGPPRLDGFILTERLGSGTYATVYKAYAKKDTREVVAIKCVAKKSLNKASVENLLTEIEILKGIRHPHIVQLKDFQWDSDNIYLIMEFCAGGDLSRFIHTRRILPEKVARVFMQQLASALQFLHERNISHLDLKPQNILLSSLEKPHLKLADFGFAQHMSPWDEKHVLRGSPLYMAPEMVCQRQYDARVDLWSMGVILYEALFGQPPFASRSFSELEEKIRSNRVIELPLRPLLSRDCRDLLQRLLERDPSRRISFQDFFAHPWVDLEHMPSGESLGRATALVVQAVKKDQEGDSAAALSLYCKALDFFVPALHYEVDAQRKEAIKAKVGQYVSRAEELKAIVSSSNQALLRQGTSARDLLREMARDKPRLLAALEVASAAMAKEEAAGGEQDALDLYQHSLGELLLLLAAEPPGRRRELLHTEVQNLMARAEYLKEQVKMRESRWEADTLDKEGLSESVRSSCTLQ

[5] = biological target: Mu-type opioid receptor (Homo sapiens) (UniProt P35372); details: Compound concentration 10.0 uM
Peregrin (Homo sapiens) = biological target: T3, Peregrin (Homo sapiens) (UniProt P55201); assay: BRPF1 SGC Tm panel (DSF); details: for ΔTm: Compound concentration 10.0 uM
T3 sequence (whole entry): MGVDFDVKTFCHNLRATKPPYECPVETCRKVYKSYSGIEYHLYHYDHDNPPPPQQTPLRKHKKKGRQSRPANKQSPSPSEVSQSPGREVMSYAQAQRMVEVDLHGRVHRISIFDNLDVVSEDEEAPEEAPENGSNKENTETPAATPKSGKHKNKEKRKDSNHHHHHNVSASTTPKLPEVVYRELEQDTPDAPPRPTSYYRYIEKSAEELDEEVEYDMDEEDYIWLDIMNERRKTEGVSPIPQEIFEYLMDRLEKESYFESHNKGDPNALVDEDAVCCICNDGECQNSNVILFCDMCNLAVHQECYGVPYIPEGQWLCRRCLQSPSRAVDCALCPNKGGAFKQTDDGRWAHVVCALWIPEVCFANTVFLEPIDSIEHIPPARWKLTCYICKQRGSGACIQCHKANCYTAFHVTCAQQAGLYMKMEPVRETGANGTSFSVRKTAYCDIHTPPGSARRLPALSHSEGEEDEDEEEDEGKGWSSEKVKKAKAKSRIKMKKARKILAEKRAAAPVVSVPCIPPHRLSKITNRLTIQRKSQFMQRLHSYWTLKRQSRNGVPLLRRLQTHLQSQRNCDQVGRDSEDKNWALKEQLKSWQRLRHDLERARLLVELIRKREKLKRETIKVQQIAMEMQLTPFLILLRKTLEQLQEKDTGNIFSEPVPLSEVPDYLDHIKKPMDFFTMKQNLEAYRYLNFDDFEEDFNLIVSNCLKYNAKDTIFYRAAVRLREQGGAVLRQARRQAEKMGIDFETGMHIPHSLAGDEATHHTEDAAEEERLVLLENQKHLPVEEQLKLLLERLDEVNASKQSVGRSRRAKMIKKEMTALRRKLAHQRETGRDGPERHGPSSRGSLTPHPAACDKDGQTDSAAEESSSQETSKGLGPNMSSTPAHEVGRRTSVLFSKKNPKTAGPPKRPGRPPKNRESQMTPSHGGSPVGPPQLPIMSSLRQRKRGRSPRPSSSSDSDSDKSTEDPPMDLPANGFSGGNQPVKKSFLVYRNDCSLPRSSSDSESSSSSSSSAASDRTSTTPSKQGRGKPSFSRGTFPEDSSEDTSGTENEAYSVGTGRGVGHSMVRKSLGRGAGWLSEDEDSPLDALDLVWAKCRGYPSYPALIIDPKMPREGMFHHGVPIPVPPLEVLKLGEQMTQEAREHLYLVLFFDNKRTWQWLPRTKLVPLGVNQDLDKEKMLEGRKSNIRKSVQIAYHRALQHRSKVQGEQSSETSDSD

[6] = biological target: Tyrosine-protein kinase Fes/Fps (Homo sapiens) (UniProt P07332); assay: FES SGC Tm panel (DSF); details: for ΔTm: Compound concentration 10.0 uM
[7] = biological target: Calcium/calmodulin-dependent protein kinase type 1G (Homo sapiens) (UniProt Q96NX5); assay: CAMK1G SGC Tm panel (DSF); details: for ΔTm: Compound concentration 10.0 uM
[8] = biological target: Calcium/calmodulin-dependent protein kinase kinase 2 (Homo sapiens) (UniProt Q96RR4); assay: CAMKK2 SGC Tm panel (DSF); details: for ΔTm: Compound concentration 10.0 uM
[9] = biological target: Bromodomain-containing protein 4 (Homo sapiens) (UniProt O60885); assay: BRD4 SGC Tm panel (DSF); details: for ΔTm: Compound concentration 10.0 uM
[10] = biological target: Serine/threonine-protein kinase 10 (Homo sapiens) (UniProt O94804); assay: STK10 SGC Tm panel (DSF); details: for ΔTm: Compound concentration 10.0 uM
[11] = biological target: Ephrin type-A receptor 4 (Homo sapiens) (UniProt P54764); assay: EPHA4 SGC Tm panel (DSF); details: for ΔTm: Compound concentration 10.0 uM
[12] = biological target: Serine/threonine-protein kinase pim-1 (Homo sapiens) (UniProt P11309); assay: PIM1 SGC Tm panel (DSF); details: for ΔTm: Compound concentration 10.0 uM
[13] = biological target: Dual specificity tyrosine-phosphorylation-regulated kinase 1A (Homo sapiens) (UniProt Q13627); assay: DYRK1A SGC Tm panel (DSF); details: for ΔTm: Compound concentration 10.0 uM
[14] = biological target: Glycogen synthase kinase-3 beta (Homo sapiens) (UniProt P49841); assay: GSK3B SGC Tm panel (DSF); details: for ΔTm: Compound concentration 10.0 uM
Sequence of Glycogen synthase kinase-3 beta (Homo sapiens) (P49841 whole entry, looked up): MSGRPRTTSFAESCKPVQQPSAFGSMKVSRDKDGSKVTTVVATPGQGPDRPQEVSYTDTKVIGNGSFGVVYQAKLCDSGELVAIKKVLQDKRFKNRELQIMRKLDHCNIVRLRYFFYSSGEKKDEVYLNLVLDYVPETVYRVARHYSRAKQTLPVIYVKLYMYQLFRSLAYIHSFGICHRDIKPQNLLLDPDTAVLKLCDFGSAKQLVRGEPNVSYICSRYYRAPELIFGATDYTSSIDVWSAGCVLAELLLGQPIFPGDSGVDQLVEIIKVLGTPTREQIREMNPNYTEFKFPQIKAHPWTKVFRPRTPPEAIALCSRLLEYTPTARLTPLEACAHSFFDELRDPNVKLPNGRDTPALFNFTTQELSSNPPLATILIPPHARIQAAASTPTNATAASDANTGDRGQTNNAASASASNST

Sequence of Serine/threonine-protein kinase 10 (Homo sapiens) (O94804 whole entry, looked up): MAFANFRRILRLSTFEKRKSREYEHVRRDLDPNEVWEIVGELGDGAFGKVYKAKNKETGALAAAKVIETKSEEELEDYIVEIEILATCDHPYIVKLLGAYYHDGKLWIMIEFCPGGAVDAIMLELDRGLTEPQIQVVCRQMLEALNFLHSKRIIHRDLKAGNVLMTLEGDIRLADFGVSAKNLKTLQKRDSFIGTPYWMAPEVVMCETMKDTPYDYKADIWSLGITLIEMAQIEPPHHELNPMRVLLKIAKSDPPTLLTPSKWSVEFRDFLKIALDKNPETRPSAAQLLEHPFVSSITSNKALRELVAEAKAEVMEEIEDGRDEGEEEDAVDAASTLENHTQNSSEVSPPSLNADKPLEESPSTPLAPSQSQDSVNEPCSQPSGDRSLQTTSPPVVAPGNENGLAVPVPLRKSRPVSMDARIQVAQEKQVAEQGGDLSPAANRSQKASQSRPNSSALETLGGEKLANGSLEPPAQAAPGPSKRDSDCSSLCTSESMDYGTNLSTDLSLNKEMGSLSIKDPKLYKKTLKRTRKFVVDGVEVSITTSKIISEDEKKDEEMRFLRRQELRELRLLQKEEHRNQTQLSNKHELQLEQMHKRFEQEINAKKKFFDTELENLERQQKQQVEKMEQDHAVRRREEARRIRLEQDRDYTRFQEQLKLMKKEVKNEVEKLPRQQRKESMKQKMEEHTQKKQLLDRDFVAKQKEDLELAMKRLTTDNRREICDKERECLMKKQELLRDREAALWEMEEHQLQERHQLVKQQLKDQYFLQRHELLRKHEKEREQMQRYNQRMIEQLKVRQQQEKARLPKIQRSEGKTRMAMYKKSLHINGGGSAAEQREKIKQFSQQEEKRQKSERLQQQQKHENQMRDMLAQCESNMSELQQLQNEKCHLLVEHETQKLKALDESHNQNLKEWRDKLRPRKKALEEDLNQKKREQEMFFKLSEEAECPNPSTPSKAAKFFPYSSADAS
Sequence of SRSF protein kinase 1 (Homo sapiens) (Q96SB4 whole entry): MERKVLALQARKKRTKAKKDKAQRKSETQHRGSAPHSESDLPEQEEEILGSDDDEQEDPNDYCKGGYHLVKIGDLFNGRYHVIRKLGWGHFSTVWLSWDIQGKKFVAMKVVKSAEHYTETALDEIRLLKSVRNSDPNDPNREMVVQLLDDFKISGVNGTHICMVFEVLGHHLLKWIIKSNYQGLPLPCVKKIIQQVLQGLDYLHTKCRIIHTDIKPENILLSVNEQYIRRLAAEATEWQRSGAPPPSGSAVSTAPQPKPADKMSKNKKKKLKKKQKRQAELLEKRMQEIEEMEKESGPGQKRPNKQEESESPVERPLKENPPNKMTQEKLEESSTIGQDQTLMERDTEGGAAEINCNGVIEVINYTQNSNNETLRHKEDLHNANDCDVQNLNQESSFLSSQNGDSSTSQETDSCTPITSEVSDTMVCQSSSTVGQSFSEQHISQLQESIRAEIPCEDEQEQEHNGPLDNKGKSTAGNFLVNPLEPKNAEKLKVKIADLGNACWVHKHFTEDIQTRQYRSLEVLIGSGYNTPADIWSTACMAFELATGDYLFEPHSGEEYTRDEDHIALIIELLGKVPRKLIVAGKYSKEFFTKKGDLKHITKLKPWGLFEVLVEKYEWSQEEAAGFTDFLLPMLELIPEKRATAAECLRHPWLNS
Sequence of Tyrosine-protein kinase Fes/Fps (Homo sapiens) (P07332 whole entry): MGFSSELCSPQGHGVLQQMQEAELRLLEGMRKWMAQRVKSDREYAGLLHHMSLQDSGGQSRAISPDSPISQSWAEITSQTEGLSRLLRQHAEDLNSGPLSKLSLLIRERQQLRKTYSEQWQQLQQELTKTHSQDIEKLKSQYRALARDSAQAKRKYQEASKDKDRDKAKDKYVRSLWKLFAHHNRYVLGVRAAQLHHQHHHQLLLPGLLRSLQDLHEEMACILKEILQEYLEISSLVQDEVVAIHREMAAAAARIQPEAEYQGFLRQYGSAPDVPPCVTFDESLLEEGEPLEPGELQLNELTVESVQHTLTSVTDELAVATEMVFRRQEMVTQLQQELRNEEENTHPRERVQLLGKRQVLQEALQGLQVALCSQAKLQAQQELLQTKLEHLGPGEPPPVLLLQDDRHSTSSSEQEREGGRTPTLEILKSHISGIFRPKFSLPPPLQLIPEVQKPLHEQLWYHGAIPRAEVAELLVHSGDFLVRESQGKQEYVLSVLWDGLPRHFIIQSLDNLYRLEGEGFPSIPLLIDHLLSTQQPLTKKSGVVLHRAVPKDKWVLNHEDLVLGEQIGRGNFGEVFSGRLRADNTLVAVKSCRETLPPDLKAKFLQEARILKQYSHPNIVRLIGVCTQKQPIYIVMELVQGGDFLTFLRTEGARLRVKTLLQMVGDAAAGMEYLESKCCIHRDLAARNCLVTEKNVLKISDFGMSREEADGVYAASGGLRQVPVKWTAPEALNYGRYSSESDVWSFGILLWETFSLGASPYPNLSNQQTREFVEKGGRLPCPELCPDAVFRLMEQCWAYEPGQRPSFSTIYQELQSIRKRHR
Sequence of Serine/threonine-protein kinase pim-1 (Homo sapiens) (P11309 whole entry, looked up): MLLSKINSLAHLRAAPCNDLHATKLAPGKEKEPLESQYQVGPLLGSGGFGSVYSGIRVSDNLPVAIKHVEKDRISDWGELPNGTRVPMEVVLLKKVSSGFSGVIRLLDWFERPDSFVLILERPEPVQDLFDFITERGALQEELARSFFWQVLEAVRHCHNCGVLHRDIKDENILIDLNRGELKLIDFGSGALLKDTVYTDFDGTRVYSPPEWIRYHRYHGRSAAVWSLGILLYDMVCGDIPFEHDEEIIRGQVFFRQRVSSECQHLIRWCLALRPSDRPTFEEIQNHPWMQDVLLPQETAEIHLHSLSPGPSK
Sequence of Calcium/calmodulin-dependent protein kinase type 1G (Homo sapiens) (Q96NX5 whole entry): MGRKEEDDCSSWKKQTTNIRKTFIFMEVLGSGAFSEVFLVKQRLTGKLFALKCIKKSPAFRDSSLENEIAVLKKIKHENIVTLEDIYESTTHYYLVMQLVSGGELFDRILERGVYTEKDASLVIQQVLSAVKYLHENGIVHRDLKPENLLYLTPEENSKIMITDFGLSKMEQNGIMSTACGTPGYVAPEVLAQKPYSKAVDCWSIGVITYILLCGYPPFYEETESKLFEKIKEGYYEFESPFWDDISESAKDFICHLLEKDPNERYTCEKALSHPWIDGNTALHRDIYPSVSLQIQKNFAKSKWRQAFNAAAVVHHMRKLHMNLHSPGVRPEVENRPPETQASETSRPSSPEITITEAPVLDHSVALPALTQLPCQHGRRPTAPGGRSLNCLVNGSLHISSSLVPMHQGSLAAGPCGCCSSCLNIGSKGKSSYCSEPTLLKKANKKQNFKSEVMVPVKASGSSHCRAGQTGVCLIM
Sequence of Calcium/calmodulin-dependent protein kinase kinase 2 (Homo sapiens) (Q96RR4 2-588 limits assumed): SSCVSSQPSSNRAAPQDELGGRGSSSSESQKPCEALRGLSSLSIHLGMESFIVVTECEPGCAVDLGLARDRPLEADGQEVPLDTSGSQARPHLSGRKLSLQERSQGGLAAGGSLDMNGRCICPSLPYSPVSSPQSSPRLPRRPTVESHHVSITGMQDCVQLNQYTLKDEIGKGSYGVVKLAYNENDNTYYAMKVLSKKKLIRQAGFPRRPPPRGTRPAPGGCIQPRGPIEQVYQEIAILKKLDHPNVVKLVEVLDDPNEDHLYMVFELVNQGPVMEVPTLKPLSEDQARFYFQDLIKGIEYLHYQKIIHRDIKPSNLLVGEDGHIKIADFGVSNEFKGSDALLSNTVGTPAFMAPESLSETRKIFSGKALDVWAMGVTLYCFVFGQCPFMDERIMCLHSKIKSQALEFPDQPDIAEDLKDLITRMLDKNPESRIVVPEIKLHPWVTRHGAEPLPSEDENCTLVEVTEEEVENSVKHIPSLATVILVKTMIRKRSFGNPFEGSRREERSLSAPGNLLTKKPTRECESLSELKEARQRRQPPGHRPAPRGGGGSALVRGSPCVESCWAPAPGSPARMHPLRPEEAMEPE
Sequence of Mu-type opioid receptor (Homo sapiens) (P35372 whole entry): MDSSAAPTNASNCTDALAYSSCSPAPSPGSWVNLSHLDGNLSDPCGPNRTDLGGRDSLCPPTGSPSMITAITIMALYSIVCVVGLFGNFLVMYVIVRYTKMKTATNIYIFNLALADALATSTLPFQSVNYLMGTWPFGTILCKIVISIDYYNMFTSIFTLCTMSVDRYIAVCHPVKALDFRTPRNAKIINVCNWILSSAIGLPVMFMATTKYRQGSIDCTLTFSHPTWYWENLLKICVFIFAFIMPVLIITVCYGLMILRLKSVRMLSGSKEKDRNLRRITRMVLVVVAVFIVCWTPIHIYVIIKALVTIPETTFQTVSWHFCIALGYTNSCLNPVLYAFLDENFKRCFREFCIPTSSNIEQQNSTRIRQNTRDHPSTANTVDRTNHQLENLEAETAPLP

inhibition [1] | delta Tm Staurosporine positive control [2] | ΔTm [2] | delta Tm Staurosporine positive control [3] | ΔTm [3] | delta Tm Staurosporine positive control [4] | ΔTm [4] | inhibition [5] | delta Tm Staurosporine positive control (Peregrin (Homo sapiens)) | ΔTm (Peregrin (Homo sapiens)) | delta Tm Staurosporine positive control [6] | ΔTm [6] | delta Tm Staurosporine positive control [7] | ΔTm [7] | delta Tm Staurosporine positive control [8] | ΔTm [8] | delta Tm Staurosporine positive control [9] | ΔTm [9] | delta Tm Staurosporine positive control [10] | ΔTm [10] | Structure (SMILES) | also measured
0.52% | 7.14 | 0.728 | 3.19 | 0.303 | 18.2 | 0.301 | 18.8% | -0.0506 | -1.23 | 8.7 | 0.123 | 13.3 | -0.0351 | 24.4 | 0.325 | 1.03 | -0.843 | 22.7 | 0.244 | COC[C@H](NC(=O)c1ccn(S(C)(=O)=O)c1)C(=O)Nc1nc(-c2cccc(-c3ccn(C)n3)c2)cs1 | delta Tm Staurosporine positive control [11]: 6.89; ΔTm [11]: 1.06; delta Tm Staurosporine positive control [12]: 11.9; ΔTm [12]: -0.353; delta Tm Staurosporine positive control [13]: 9.3; ΔTm [13]: -0.76; delta Tm Staurosporine positive control [14]: 12.1; ΔTm [14]: 0.242
4.67% | 7.14 | 0.0203 | 3.19 | 0.296 | 18.2 | 0.155 | 8.54% | -0.0506 | -1.18 | 8.7 | 0.0445 | 13.3 | 0.371 | 24.4 | 0.609 | 1.03 | -0.303 | 22.7 | 0.554 | C[C@H](NC(=O)c1cn(C2(C#N)CC2)cn1)C(=O)Nc1nc(-c2cccc(-c3ccn(C)n3)c2)cs1 | delta Tm Staurosporine positive control [11]: 6.89; ΔTm [11]: 1.22; delta Tm Staurosporine positive control [12]: 11.9; ΔTm [12]: -0.391; delta Tm Staurosporine positive control [13]: 9.3; ΔTm [13]: -0.834; delta Tm Staurosporine positive control [14]: 12.1; ΔTm [14]: 0.703
